Test results reported in publication PMC7580722, “Design of new disubstituted imidazo[1,2-b]pyridazine derivatives as selective Haspin inhibitors. Synthesis, binding mode and anticancer biological evaluation” (Journal of Enzyme Inhibition and Medicinal Chemistry, 2020).

What was measured:
HsCdk5/p25 = experiment: CDK5 kinase assay; type: biochemical, human; conditions: SI = IC50 kinase X/IC50 Haspin
Description: Values are IC50 expressed in µM and calculated from dose–response curves (each point on the curves was performed in triplicate). Selectivity indexes (SI; in brackets) are calculated as follows: SI = IC50 kinase X/IC50 Haspin. ND: not determined. *IC50 values obtained using the ADP-Glo methodology (see Experimental section, Supplementary Material). […]
The reaction was carried out as described in general procedure A using 4 (0.150 g, 0.58 mmol, 1 equiv.), 2-aminopyrimidine-5-boronic acid (0.122 g, 0.88 mmol, 1.5 equiv.) and Cs2CO3 (0.575 g, 1.75 mmol, 3 equiv.). The crude mixture was purified by flash chromatography on silica gel (EtOAc) to afford 28 (0.115 g, 73 %) as a yellow […]
The reaction was carried out as described in general procedure A using 4 (0.100 g, 0.39 mmol, 1 equiv.), 1-naphthaleneboronic acid (0.083g, 0.47 mmol, 1.2 equiv.) and Cs2CO3 (0.381 g, 1.17 mmol, 3 equiv.). […]
Recombinant protein kinases were expressed and purified from E. coli (HsHaspin kinase domain aa470-798, HsCdk5/p25, RnDYRK1A kinase domain aa1-499, HsPIM1, MmCLK1) or baculovirus/Sf9 cells (HsCdk2/Cyclin A, HsCdk9/Cyclin T). […] The wet filter-bound radioactivity was determined in the presence of 20 µl scintillation fluid (GE healthcare) with a TopCount® Scintillation and Luminescence Counter (PerkinElmer). IC50 values were calculated from dose-response curves […]

HsCDK1 = target: T1, HsCDK1 (Homo sapiens, UniProt P06493); experiment: CDK1 kinase assay; type: biochemical
T1 construct: purchased ProQinase
Description: We therefore tested our compounds on two obvious candidates, HsCDK1 and HsPLK1 (Polo-like_kinase 1) both required for mitotic entry[50]
(§1) Values are IC50 expressed in µM and calculated from dose–response curves (each point from the curves was performed in duplicate). NR: not relevant. […]
(§2) Recombinant protein kinases were expressed and purified from E. coli (HsHaspin kinase domain aa470-798, HsCdk5/p25, RnDYRK1A kinase domain aa1-499, HsPIM1, MmCLK1) or baculovirus/Sf9 cells (HsCdk2/Cyclin A, HsCdk9/Cyclin T). Native SscCK1δ /ε and SscGSK3α/β were purified from pig brain whereas HsPlk1, HsCdk1 and HsAurora B were purchased from ProQinase and SignalChem respectively. Kinase assays were performed in specific buffers and substrates for each kinase tested in the presence of 15 µM [γ-33P] ATP (3,000 Ci/mmol, 10 mCi/ml; PerkinElmer) in a final volume of 30 µl as previously reported 51. After 30 min incubation at 30°C, the reaction mix was spotted onto GE healthcare P81 phosphocellulose paper using a FilterMate Harvester (PerkinElmer), and the filter was extensively washed with a 1% phosphoric acid solution. The wet filter-bound radioactivity was determined in the presence of 20 µl scintillation fluid (GE healthcare) with a TopCount® Scintillation and Luminescence Counter (PerkinElmer). IC50 values were calculated from dose-response curves

HsPLK1 = target: T2, HsPLK1 (Homo sapiens, UniProt P53350); experiment: PLK1 kinase assay; type: biochemical; conditions: Table 4
T2 construct: purchased ProQinase
Description: . We therefore tested our compounds on two obvious candidates, HsCDK1 and HsPLK1 (Polo-like_kinase 1) both required for mitotic entry[50] (Table 4).
as §1, §2

RPE-1 = experiment: Cell viability, monolayer (2D), MTS assay; type: cell-based; conditions: Homo sapiens, 48 h
U-2 OS = experiment: Cell viability, monolayer (2D), MTS assay; type: cell-based; conditions: Homo sapiens, U2OS, 48 h
SH-SY5Y = experiment: Cell viability, monolayer (2D), MTS assay; type: cell-based; conditions: Homo sapiens, 48 h
U-2 OS spheroids = experiment: Spheroid (3D) viability, CellTiter-Glo; type: cell-based, human; conditions: 5 µM, Figure 4(B)

T1 sequence (P06493 whole entry): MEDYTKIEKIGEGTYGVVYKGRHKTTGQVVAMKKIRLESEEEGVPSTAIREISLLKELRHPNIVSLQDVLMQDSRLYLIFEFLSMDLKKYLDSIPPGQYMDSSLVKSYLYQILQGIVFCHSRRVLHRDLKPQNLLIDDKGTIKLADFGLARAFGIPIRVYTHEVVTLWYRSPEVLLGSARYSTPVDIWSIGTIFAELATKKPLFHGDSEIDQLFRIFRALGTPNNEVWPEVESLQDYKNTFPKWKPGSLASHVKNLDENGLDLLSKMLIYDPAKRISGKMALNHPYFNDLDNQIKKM
T1 sequence (P14635 whole entry partner): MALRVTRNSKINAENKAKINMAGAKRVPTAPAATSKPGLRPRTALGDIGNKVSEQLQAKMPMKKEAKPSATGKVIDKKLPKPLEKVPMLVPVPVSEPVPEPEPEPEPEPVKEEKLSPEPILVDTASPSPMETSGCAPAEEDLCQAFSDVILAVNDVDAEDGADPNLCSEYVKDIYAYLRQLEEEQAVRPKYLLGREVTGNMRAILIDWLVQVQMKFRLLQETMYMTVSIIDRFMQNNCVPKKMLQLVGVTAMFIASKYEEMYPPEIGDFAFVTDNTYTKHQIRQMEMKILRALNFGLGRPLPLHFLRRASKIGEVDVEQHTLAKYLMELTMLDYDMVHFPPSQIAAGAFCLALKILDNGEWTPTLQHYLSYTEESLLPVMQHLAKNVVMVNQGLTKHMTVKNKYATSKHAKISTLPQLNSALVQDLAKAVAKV
T2 sequence (P53350 whole entry): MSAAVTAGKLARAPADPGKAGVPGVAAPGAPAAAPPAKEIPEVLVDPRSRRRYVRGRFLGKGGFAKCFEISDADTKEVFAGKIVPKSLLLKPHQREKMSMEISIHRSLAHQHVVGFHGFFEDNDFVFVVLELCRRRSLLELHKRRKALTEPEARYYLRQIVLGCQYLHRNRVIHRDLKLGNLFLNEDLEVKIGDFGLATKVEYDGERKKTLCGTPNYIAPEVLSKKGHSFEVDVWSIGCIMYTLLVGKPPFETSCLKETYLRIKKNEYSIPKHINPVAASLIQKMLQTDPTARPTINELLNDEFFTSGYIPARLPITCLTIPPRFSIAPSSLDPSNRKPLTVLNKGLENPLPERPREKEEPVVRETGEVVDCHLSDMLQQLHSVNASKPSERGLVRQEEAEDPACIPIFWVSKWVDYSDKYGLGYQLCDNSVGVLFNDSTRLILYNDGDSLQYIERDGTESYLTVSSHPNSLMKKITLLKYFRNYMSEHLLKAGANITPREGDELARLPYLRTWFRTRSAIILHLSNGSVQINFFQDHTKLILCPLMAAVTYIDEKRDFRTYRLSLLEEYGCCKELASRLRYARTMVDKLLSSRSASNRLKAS

selectivity for CDK5 vs Haspin (HsCdk5/p25): 150 fold
SI CDK1/Haspin (HsCDK1; SI = IC50 CDK1/IC50 Haspin): 392
IC50 (HsCDK1; Table 4, read-out: IC50 HsCDK1): 2350 nM
IC50 (HsPLK1): > 10 µM
EC50 (SH-SY5Y): > 10 µM
Compound: c1cc2[nH]ncc2cc1-c1cnc2ccc(OC[C@@H]3CNCCO3)nn12 [Compound 21]
EC50 (RPE-1): 4.6 µM
EC50 (U-2 OS): 5.2 µM
U-2 OS spheroid remaining viability (U-2 OS spheroids; 2 days): no effects
viability at 5 µM (U-2 OS spheroids; Homo sapiens, U2OS, 240 h, 10 days, read-out: U-2 OS spheroid viability): 69%
